Reference: patent US5770688A, “Method and composition for the treatment of mammalian HIV infection” (GSF-Forschungszentrum fur Umwelt und Gesundheit GmbH, priority 1989, dated 1998)

Tests used:
[1] = disappearance of melittin from culture medium / uptake by cells; format: in vitro ADME
Text: This means, in essence, that the effect of melittin (Seq. ID NO:1) on the virus is to attack the virus before it is released from an infected cell although it is possible that a reduction in virus numbers may be possible during and immediately after the addition of melittin to a cell culture or otherwise. […] At this point in time, melittin is absent from the culture. […] This observation excludes any effect in the experiments to be explained by a direct effect of melittin on "cell free" virus, that is, virus released into the supernatant.
These characteristics appear to be due to the specific structure of the melittin amphiphilic helix. […] In this regard, treatment was at cultivation start, and measurement of infectivity was seven days post treatment. As was discussed earlier, maximum virus concentration in cultures of this type is not achieved for five days after cultivation. As should be understood and the conclusions which the inventors have drawn from same is that if the reduced viral infectivity seven days post treatment were only due to direct effects of melittin on the virus, then in that event, the melittin or an active fragment would have to be present as late as five days post treatment. […] Moreover, and if the reduction and supernatant infectivity was partly due to reduced virus production as opposed to incorrect virus assembly or destruction of newly synthesized virion, then, in that event, this should be reflected by reduced amounts of viral proteins within the cells and/or in their supernatants of the melittin treated cultures. To determine whether this hypothesis is correct the inventors chose the P24 marker as a marker for viral protein production. […] However, following fourteen hours of incubation with melittin, there is a marked reduction of P24 within the cells as well as in the supernatant (down to 60%).

[2] = system: non-infected cells; experiment: MTT toxicity/killing of non-infected cells (Biomek 1000); format: cell-based
Experimental: The KE37-1 (uninfected) and KE37-1/111β (infected) cell lines discussed below are commercially available from the Dr. Robert Gallows Laboratory of the NIH in the United States of America and grown in a medium of RPMI 1640 (GIBCO) and further supplemented with 10% fetal calf serum which contained approximately 100 units of penicillin, 100 μg streptomycin, and approximately 0.25 μg fungizone (Amphotericin B) per milliliter. The human mesenchymal cell lines LC5 and LC5-HIV, discussed below, are deposited with the Collection De L'Institut Pasteur of Paris, France on Mar. 9, 1989 and given the accession numbers I-842 and I-843, respectively. […]
In the present series of experiments HIV release was tested by a fully automated laboratory robot system and which is manufactured by Beckman Instruments as the Biomek 1000. […] The number of living cells are quantified by MTT, that is by a metabolic (dehydrogenase) test. […] The toxic effect is detected at the time of the experiment and not in a separate control experiment. Furthermore, the supernatant, and which contains released virus cells from the period of time which elapsed from the last wash, and which may vary from 24 hours to 7 days, is collected from the culture, and an aliquot is saved for virus quantification by employing antigen or viral enzyme reverse transcriptase (RT). […]

[3] = system: KE37-1/111β (HIV-infected T-lymphoma cells); experiment: MTT test, growth of HIV infected T-lymphoma cells; format: cell-based
Experimental: The KE37-1 (uninfected) and KE37-1/111β (infected) cell lines discussed below are commercially available from the Dr. Robert Gallows Laboratory of the NIH in the United States of America and grown in a medium of RPMI 1640 (GIBCO) and further supplemented with 10% fetal calf serum which contained approximately 100 units of penicillin, 100 μg streptomycin, and approximately 0.25 μg fungizone (Amphotericin B) per milliliter. The human mesenchymal cell lines LC5 and LC5-HIV, discussed below, are deposited with the Collection De L'Institut Pasteur of Paris, France on Mar. 9, 1989 and given the accession numbers I-842 and I-843, respectively. The LC5 and LC5-HIV cell lines were grown in a medium of RPMI 1640 and supplemented with 10% fetal calf serum.
Referring more particularly to FIGS. 1-4, melittin (Seq. ID NO:1) and its specified analogues were tested for their effect on HIV-infected T-lymphoma cells. In this regard the following cell lines were employed in the testing: KE37-1 (uninfected) and KE37-1/111S (infected with HTLV-111β). These infected cells were incubated for a period of seven days under test conditions at a temperature of 37° C. and in the presence of 5% CO2. A culture medium of RPMI 1640 (GIBCO) was employed and was further supplemented with 10% fetal calf serum which contained approximately 100 units of penicillin, 100μ of streptomycin, and approximately 0.25μ fungizone (Amphotericin B) per milliliter. This equals 1 milliliter of antibiotic-antimycotic solution (GIBCO Catalogue No. 043-05240 per 100 ml. of medium.) After a one week incubation period in the presence of various concentrations of the above-identified substances, which were added fresh daily to the medium, the following tests were carried out with the cultures. A first test was conducted for purposes of determining the relative cell concentration as a function of the number of HIV infected cells present by employing an MTT test. […] The optical density (OD) of the solution was determined at=600 nm. […]

Gly-Ile-Gly-Ala-Val-Leu-Lys-Val-Leu-Thr-Thr-Gly-Leu-Pro-Ala-Leu-Ile-Ser-Trp-Ile-Lys-Arg-Lys-Arg-Gln-Gln-Amide [melittin]
absorption by the cell ([1]; after introduction to the culture): absorbed by the cell within hours after introduction to the culture | half-life of melittin ([1]; cell culture): 19 h | melittin in the medium ([1]; two hours after addition to the culture): not measurable in the medium two hours after addition to the culture | critical concentration at which all non-infected cells were killed [2]: 10 μg per ml | level of growth of the cells ([3]; 2.5 μg per ml): appears not yet influenced | selective toxicity/growth inhibition of HIV infected cells, in words ([3]; FIGS. 1-4): appears to inhibit the growth of HIV infected cells selectively | concentration toxic to HIV infected cells ([3]; KE37-1/111β, seven days incubation, 10080 min): above 5 μg per ml
